Measured values reported in ChEMBL document CHEMBL5584360, “Undescribed Amaryllidaceae Alkaloids from Zephyranthes citrina and Their Cytotoxicity” (J Nat Prod, 2024).
Values after ≈ are worked out from the molar mass of the structure shown.

Key:
[1] = Selectivity index, ratio of cytotoxic effect against human MRC5 cells to cytotoxic effect against human Jurkat cells; assay type: toxicity, cell-based; conditions: MRC5 cells versus Jurkat cells, read-out: Selectivity Index
[2] = Selectivity index, ratio of cytotoxic effect against human MRC5 cells to cytotoxic effect against human MOLT-4 cells
[3] = Selectivity index, ratio of cytotoxic effect against human MRC5 cells to cytotoxic effect against human A549 cells; assay type: toxicity, cell-based; conditions: MRC5 cells versus A549 cells, read-out: Selectivity Index
[4] = Selectivity index, ratio of cytotoxic effect against human MRC5 cells to cytotoxic effect against human HT-29 cells; assay type: toxicity, cell-based; conditions: MRC5 cells versus HT-29 cells, read-out: Selectivity Index
[5] = Selectivity index, ratio of cytotoxic effect against human MRC5 cells to cytotoxic effect against human PANC-1 cells
[6] = Selectivity index, ratio of cytotoxic effect against human MRC5 cells to cytotoxic effect against human A2780 cells; assay type: toxicity, cell-based; conditions: MRC5 cells versus A2780 cells, read-out: Selectivity Index
[7] = Selectivity index, ratio of cytotoxic effect against human MRC5 cells to cytotoxic effect against human HeLa cells; assay type: toxicity, cell-based; conditions: MRC5 cells versus HeLa cells, read-out: Selectivity Index
[8] = Selectivity index, ratio of cytotoxic effect against human MRC5 cells to cytotoxic effect against human MCF7 cells; assay type: toxicity, cell-based; conditions: MRC5 cells versus MCF7 cells, read-out: Selectivity Index
[9] = Selectivity index, ratio of cytotoxic effect against human MRC5 cells to cytotoxic effect against human SAOS-2 cells
A549 = assay: Cytotoxicity against human A549 cells measured after 72 hrs by MTT assay; assay type: functional, cell-based; conditions: A549, 72 h
Acetylcholinesterase = Acetylcholinesterase (Homo sapiens, UniProt P22303); assay: Inhibition of human AChE by Ellman's method
Cholinesterase = Cholinesterase (Homo sapiens, UniProt P06276); assay: Inhibition of human BChE by Ellman's method
KB = assay: Cytotoxicity against human KB cells; assay type: functional; conditions: read-out: ED50 (the source's name)

Sequence of Acetylcholinesterase (P22303 whole entry): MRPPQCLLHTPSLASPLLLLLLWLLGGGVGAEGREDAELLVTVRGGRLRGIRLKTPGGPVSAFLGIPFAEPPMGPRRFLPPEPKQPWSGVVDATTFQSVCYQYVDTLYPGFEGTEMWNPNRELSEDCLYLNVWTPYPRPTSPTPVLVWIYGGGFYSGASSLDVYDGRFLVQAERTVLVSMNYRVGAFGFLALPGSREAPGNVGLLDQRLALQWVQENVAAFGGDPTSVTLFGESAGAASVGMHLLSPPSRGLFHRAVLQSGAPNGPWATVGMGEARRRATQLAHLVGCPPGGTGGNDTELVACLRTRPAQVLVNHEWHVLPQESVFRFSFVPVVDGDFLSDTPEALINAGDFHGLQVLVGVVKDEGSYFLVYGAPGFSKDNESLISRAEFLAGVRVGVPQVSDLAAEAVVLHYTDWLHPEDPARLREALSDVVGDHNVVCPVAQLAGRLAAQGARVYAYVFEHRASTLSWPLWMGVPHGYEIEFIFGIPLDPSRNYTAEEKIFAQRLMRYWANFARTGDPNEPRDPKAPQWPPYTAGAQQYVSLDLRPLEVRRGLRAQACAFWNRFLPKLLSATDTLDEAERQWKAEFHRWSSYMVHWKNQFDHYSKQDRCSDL
Sequence of Cholinesterase (P06276 whole entry): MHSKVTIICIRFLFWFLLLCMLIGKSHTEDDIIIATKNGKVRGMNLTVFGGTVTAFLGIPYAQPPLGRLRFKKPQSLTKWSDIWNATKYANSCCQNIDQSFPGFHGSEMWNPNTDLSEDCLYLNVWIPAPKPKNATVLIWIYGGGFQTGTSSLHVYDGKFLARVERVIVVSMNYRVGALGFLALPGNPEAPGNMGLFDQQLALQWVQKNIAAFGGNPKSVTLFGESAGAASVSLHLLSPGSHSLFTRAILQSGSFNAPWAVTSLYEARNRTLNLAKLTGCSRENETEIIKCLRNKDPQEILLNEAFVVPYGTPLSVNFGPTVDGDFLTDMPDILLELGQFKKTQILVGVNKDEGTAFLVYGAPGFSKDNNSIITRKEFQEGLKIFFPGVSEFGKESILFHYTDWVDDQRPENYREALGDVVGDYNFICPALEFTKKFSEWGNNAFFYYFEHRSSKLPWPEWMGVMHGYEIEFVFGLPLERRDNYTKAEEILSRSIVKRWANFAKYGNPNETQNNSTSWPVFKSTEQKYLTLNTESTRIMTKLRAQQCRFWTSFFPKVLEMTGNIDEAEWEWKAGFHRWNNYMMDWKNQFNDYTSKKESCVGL

With `CO[C@@H]1C=C[C@@]23c4cc5c(cc4[C@H](O)N(C[C@@H]2O)[C@H]3C1)OCO5` the selectivity ratio [1] was 0.14, the “Selectivity Index” value [2] was 0.14 and the selectivity ratio [3] was 0.14. For the same compound, the selectivity ratio [4] was 0.14, the “Selectivity Index” value [5] was 0.14 and the selectivity ratio [6] was 0.14. The selectivity ratio [7] was 0.14, the selectivity ratio [8] was 0.14 and the “Selectivity Index” value [9] was 0.14.
For `CO[C@H]1C=C[C@@]23c4cc5c(cc4CN(C[C@@H]2O)[C@H]3C1)OCO5`, the IC50 (A549) was 15.9 µg/mL (≈ 52.8 µM).
Compound `COc1cc(-c2cccc3c2N(C)CC3)c(CN2CC[C@@]34C=C[C@H](O)C[C@@H]3Oc3c(OC)ccc(c34)C2)c(OC)c1OC` has an IC50 (Acetylcholinesterase) of 18.7 µM and an IC50 (Cholinesterase) of 1.34 µM.
With `COc1cc2c(cc1OC)[C@@]13C=CC(O)C[C@@H]1N(CC3)C2` (stereo partly specified) the EC50 (KB) was 0.51 µg/mL (≈ 1.77 µM).
With `CO[C@@H]1C=C[C@@]23c4cc5c(cc4CN(C[C@@H]2O)[C@H]3C1)OCO5` [(+)-HAEMANTHAMINE] the selectivity ratio [1] was 0.05, the “Selectivity Index” value [2] was 0.05 and the selectivity ratio [3] was 0.05. For the same compound, the selectivity ratio [4] was 0.05, the “Selectivity Index” value [5] was 0.05 and the selectivity ratio [6] was 0.05. For the same compound, the selectivity ratio [7] was 0.05, the selectivity ratio [8] was 0.05 and the “Selectivity Index” value [9] was 0.05.
With `O[C@H]1[C@H]2c3cc4c(cc3CN3CCC(=C[C@@H]1O)[C@H]23)OCO4` [LYCORINE] the selectivity ratio [1] was 0.62, the “Selectivity Index” value [2] was 0.62 and the selectivity ratio [3] was 0.62. The selectivity ratio [4] was 0.62, the “Selectivity Index” value [5] was 0.62 and the selectivity ratio [6] was 0.62. For the same compound, the selectivity ratio [7] was 0.62, the selectivity ratio [8] was 0.62 and the “Selectivity Index” value [9] was 0.62.
